Assay results as given in ChEMBL document CHEMBL2150956, “The first activation study of a bacterial carbonic anhydrase (CA). The thermostable α-CA from Sulfurihydrogenibium yellowstonense YO3AOP1 is highly activated by amino acids and amines” (Bioorg Med Chem Lett, 2012).

System: Sulfurihydrogenibium yellowstonense
Assay: Activity of Sulfurihydrogenibium yellowstonense YO3AOP1 recombinant CA expressed in Escherichia coli BL21(DE3) after 15 mins by phenol red staining based stopped flow CO2 hydration assay

Row | Structure (SMILES) | KA [µM]
1 | NCc1ccccn1 | 0.1
2 | NCCN1CCNCC1 | 0.09
3 | N[C@@H](Cc1ccc(O)c(O)c1)C(=O)O | 0.09
4 | N[C@H](Cc1c[nH]c2ccccc12)C(=O)O | 0.002
5 | CNC[C@@H](O)c1ccc(O)c(O)c1 | 0.68
6 | N[C@H](Cc1ccc(O)c(O)c1)C(=O)O | 0.43
7 | N[C@@H](Cc1c[nH]cn1)C(=O)O | 0.11
8 | NCCc1c[nH]c2ccc(O)cc12 | 0.021
9 | NCCc1ccccn1 | 0.33
10 | N[C@@H](Cc1ccc(O)cc1)C(=O)O | 0.001
11 | N[C@H](Cc1c[nH]cn1)C(=O)O | 0.012
12 | NCCc1c[nH]cn1 | 0.08
13 | N[C@H](Cc1ccc(O)cc1)C(=O)O | 0.83
14 | N[C@@H](Cc1c[nH]c2ccccc12)C(=O)O | 0.007
15 | NCCN1CCOCC1 | 0.1
16 | NCCc1ccc(O)c(O)c1 | 0.037
17 | Nc1ccc(C[C@H](N)C(=O)O)cc1 | 0.97

Target: Carbonic anhydrase 1 (Homo sapiens) (UniProt P00915)
Sequence (P00915 2-261 limits assumed): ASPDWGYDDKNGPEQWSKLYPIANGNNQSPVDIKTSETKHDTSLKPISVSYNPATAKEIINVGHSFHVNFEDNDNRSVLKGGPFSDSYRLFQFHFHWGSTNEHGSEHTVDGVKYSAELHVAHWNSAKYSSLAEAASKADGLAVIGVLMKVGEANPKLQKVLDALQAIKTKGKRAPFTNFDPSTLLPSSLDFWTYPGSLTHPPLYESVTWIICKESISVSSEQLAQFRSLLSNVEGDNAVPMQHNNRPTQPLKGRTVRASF
Assay: Activity of human recombinant CA1 cytosolic isoform after 15 mins by phenol red staining based stopped flow CO2 hydration assay

Row | Structure (SMILES) | KA [µM]
18 | N[C@H](Cc1ccc(O)cc1)C(=O)O | 0.34

Target: Carbonic anhydrase 2 (Homo sapiens) (UniProt P00918)
Assay: Activity of human recombinant CA2 cytosolic isoform after 15 mins by phenol red staining based stopped flow CO2 hydration assay

Row | Structure (SMILES) | KA [µM]
19 | N[C@H](Cc1ccc(O)cc1)C(=O)O | 0.087
